Laboratory results: patent publication US10105357B2, “Indication of antibiotic drugs for preparation of cancer inhibition pharmaceutical composition” (LAUNX BIOMEDICAL CO., LTD., priority 2014, dated 2018)
Counter-ions that a name gives are not always drawn. Like-named read-outs stand apart in the source and are kept apart here.

Legend:
Format in all cases: cell-based, human
[1] = tested on: MKN-45 (Gastric Adenocarcinoma); experiment: Cell viability analysis, gastric cancer MKN-45; details: Homo sapiens
[2] = tested on: PC3 (p53−) (Prostate Adenocarcinoma); experiment: Cell viability analysis, prostate cancer PC3; details: Homo sapiens
[3] = tested on: LoVo (Colorectal Adenocarcinoma); experiment: Cell viability analysis, colon cancer LoVo; details: Homo sapiens, LoVo
[4] = tested on: AGS (Gastric Adenocarcinoma); experiment: Cell viability analysis, gastric cancer AGS; details: Homo sapiens
cancer cell lines = experiment: Cell viability analysis (WST-1) on cancer cell lines; details: drug 10 μM, 72 hours, WST-1; Table 3
[5] = tested on: HI650 (Lung Adenocarcinoma); experiment: Cell viability analysis, lung cancer HI650; details: Homo sapiens
[6] = tested on: MCF7 (Mammary Gland, Adenocarcinoma); experiment: Cell viability analysis, breast cancer MCF7; details: Homo sapiens
[7] = tested on: HepG2 (Hepatocellular Carcinoma); experiment: Cell viability analysis, hepatic cancer HepG2; details: Homo sapiens
[8] = tested on: HL-60 (Acute Promyelocytic Leukemia); experiment: Cell viability analysis, leukemia HL-60; details: Homo sapiens
[9] = tested on: TSGH-8301 (Urinary Bladder Carcinoma); experiment: Cell viability analysis, bladder cancer TSGH-8301; details: Homo sapiens
[10] = tested on: A375 (Amelanotic Melanoma); experiment: Cell viability analysis, skin cancer A375; details: Homo sapiens
[11] = tested on: A549 (Lung Adenocarcinoma); experiment: Cell viability analysis, lung cancer A549; details: Homo sapiens
[12] = tested on: HeLa (Cervix Adenocarcinoma); experiment: Cell viability analysis, cervical cancer HeLa; details: Homo sapiens, HeLa
[13] = MKN-45, 72 h, read-out: cell viability (survival rate), MKN-45, drug 10 μM, 72 hours, WST-1, OD450 nm
[14] = 72 h, read-out: cell viability (survival rate), PC3, drug 10 μM, 72 hours, WST-1, OD450 nm
[15] = 72 h, read-out: cell viability (survival rate), LoVo, drug 10 μM, 72 hours, WST-1, OD450 nm
[16] = 72 h, read-out: cell viability (survival rate), AGS, drug 10 μM, 72 hours, WST-1, OD450 nm
[17] = NCI-H1650, 72 h, read-out: cell viability (survival rate), H1650, drug 10 μM, 72 hours, WST-1, OD450 nm
[18] = MCF7, 72 h, read-out: cell viability (survival rate), MCF7, drug 10 μM, 72 hours, WST-1, OD450 nm
[19] = HepG2, 72 h, read-out: cell viability (survival rate), HepG2, drug 10 μM, 72 hours, WST-1, OD450 nm
[20] = HL-60, 72 h, read-out: cell viability (survival rate), HL-60, drug 10 μM, 72 hours, WST-1, OD450 nm
[21] = 72 h, read-out: cell viability (survival rate), TSGH, drug 10 μM, 72 hours, WST-1, OD450 nm
[22] = A-375, 72 h, read-out: cell viability (survival rate), A375, drug 10 μM, 72 hours, WST-1, OD450 nm
[23] = A549, 72 h, read-out: cell viability (survival rate), A549, drug 10 μM, 72 hours, WST-1, OD450 nm
[24] = 72 h, read-out: cell viability (survival rate), HeLa, drug 10 μM, 72 hours, WST-1, OD450 nm
[25] = MKN-45, 72 h, drug 10 μM, 72 hours, WST-1, OD450 nm, read-out: cell viability (survival rate), MKN-45
[26] = 72 h, drug 10 μM, 72 hours, WST-1, OD450 nm, read-out: cell viability (survival rate), PC3
[27] = 72 h, drug 10 μM, 72 hours, WST-1, OD450 nm, read-out: cell viability (survival rate), AGS
[28] = NCI-H1650, 72 h, drug 10 μM, 72 hours, WST-1, OD450 nm, read-out: cell viability (survival rate), H1650
[29] = MCF7, 72 h, drug 10 μM, 72 hours, WST-1, OD450 nm, read-out: cell viability (survival rate), MCF7
[30] = HepG2, 72 h, drug 10 μM, 72 hours, WST-1, OD450 nm, read-out: cell viability (survival rate), HepG2
[31] = HL-60, 72 h, drug 10 μM, 72 hours, WST-1, OD450 nm, read-out: cell viability (survival rate), HL-60
[32] = 72 h, drug 10 μM, 72 hours, WST-1, OD450 nm, read-out: cell viability (survival rate), TSGH
[33] = A-375, 72 h, drug 10 μM, 72 hours, WST-1, OD450 nm, read-out: cell viability (survival rate), A375
[34] = A549, 72 h, drug 10 μM, 72 hours, WST-1, OD450 nm, read-out: cell viability (survival rate), A549
[35] = 72 h, drug 10 μM, 72 hours, WST-1, OD450 nm, read-out: cell viability (survival rate), HeLa

| Compound | inhibition effect on different cancer cell lines (cancer cell lines) | viability at 10 µM [3, 15] | viability at 10 µM [1, 25] | viability at 10 µM [2, 26] | viability at 10 µM [4, 27] | viability at 10 µM [5, 28] | viability at 10 µM [6, 29] | viability at 10 µM [7, 30] | viability at 10 µM [8, 31] | viability at 10 µM [9, 32] | viability at 10 µM [10, 33] | viability at 10 µM [11, 34] | viability at 10 µM [12, 35] | further results |
| --- | --- | --- | --- | --- | --- | --- | --- | --- | --- | --- | --- | --- | --- | --- |
| CC(C)OC(=O)OCOP(=O)(CO[C@H](C)Cn1cnc2c(N)ncnc21)OCOC(=O)OC(C)C [Tenofovir Disoproxil Fumarate] | significant inhibition effect | – | – | – | – | – | – | – | – | – | – | – | – | viability at 10 µM ([1]; MKN-45, drug 10 μM, 72 hours, WST-1, OD450 nm, read-out: cell viability (survival rate), MKN-45): 71.6%; viability at 10 µM ([2]; drug 10 μM, 72 hours, WST-1, OD450 nm, read-out: cell viability (survival rate), PC3): 66.9%; viability at 10 µM ([3]; drug 10 μM, 72 hours, WST-1, OD450 nm, read-out: cell viability (survival rate), LoVo): 75.8%; viability at 10 µM ([4]; drug 10 μM, 72 hours, WST-1, OD450 nm, read-out: cell viability (survival rate), AGS): 54.7%; viability at 10 µM ([5]; NCI-H1650, drug 10 μM, 72 hours, WST-1, OD450 nm, read-out: cell viability (survival rate), H1650): 50.9%; viability at 10 µM ([6]; MCF7, drug 10 μM, 72 hours, WST-1, OD450 nm, read-out: cell viability (survival rate), MCF7): 68.7%; viability at 10 µM ([7]; HepG2, drug 10 μM, 72 hours, WST-1, OD450 nm, read-out: cell viability (survival rate), HepG2): 93.7%; viability at 10 µM ([8]; HL-60, drug 10 μM, 72 hours, WST-1, OD450 nm, read-out: cell viability (survival rate), HL-60): 93.4%; viability at 10 µM ([9]; drug 10 μM, 72 hours, WST-1, OD450 nm, read-out: cell viability (survival rate), TSGH): 88.2%; viability at 10 µM ([10]; A-375, drug 10 μM, 72 hours, WST-1, OD450 nm, read-out: cell viability (survival rate), A375): 67.1%; viability at 10 µM ([11]; A549, drug 10 μM, 72 hours, WST-1, OD450 nm, read-out: cell viability (survival rate), A549): 47%; viability at 10 µM ([12]; drug 10 μM, 72 hours, WST-1, OD450 nm, read-out: cell viability (survival rate), HeLa): 85.7% |
| CCCCCCCCCC(=O)N[C@@H](Cc1c[nH]c2ccccc12)C(=O)N[C@H](CC(N)=O)C(=O)N[C@@H](CC(=O)O)C(=O)N[C@@H]1C(=O)NCC(=O)N[C@@H](CCCN)C(=O)N[C@@H](CC(=O)O)C(=O)N[C@H](C)C(=O)N[C@@H](CC(=O)O)C(=O)NCC(=O)N[C@H](CO)C(=O)N[C@@H]([C@H](C)CC(=O)O)C(=O)N[C@@H](CC(=O)c2ccccc2N)C(=O)O[C@@H]1C [Daptomycin] | significant inhibition effect | 90.9% | – | – | – | – | – | – | – | – | – | – | – | viability at 10 µM [1, 13]: 92.1%; viability at 10 µM [2, 14]: 79.7%; viability at 10 µM [4, 16]: 63%; viability at 10 µM [5, 17]: 76.3%; viability at 10 µM [6, 18]: 85.3%; viability at 10 µM [7, 19]: 95.9%; viability at 10 µM [8, 20]: 108%; viability at 10 µM [9, 21]: 56.8%; viability at 10 µM [10, 22]: 81.2%; viability at 10 µM [11, 23]: 74%; viability at 10 µM [12, 24]: 114% |
| C[C@H](CCC(=O)O)[C@H]1CC[C@H]2[C@@H]3[C@H](O)C[C@@H]4C[C@H](O)CC[C@]4(C)[C@H]3CC[C@]12C [Chenodeoxycholic acid] | significant inhibition effect | 82.7% | 51.8% | 71.4% | 68.9% | 68.1% | 74.5% | 94.8% | 118% | 88.8% | 64.2% | 96.3% | 69.1% | – |
| CC(=O)SCC(Cc1ccccc1)C(=O)NCC(=O)OCc1ccccc1 (centres unmarked) [Racecadotril (Acetorphan), Racecadotril] | significant inhibition effect | 74.5% | 97.4% | 107% | 84% | 82.9% | 108% | 88.8% | 122% | 65.6% | 66.2% | 95.8% | 65.6% | – |
| C[C@@H]1[C@H](O)[C@@H](C)/C=C/C=C/C=C/C=C/C=C/C=C/C=C/[C@H](O[C@@H]2O[C@H](C)[C@@H](O)[C@H](N)[C@@H]2O)C[C@@H]2O[C@](O)(C[C@@H](O)C[C@@H](O)[C@H](O)CC[C@@H](O)C[C@@H](O)CC(=O)O[C@H]1C)C[C@H](O)[C@H]2C(=O)O [Amphotericin B (Abelcet), Amphotericin B] | significant inhibition effect | 66.5% | – | – | – | – | – | – | – | – | – | – | – | viability at 10 µM [1, 13]: 44%; viability at 10 µM [2, 14]: 66.9%; viability at 10 µM [4, 16]: 28.5%; viability at 10 µM [5, 17]: 61.2%; viability at 10 µM [6, 18]: 38.9%; viability at 10 µM [7, 19]: 90.3%; viability at 10 µM [8, 20]: 116%; viability at 10 µM [9, 21]: 56%; viability at 10 µM [10, 22]: 98.9%; viability at 10 µM [11, 23]: 45%; viability at 10 µM [12, 24]: 84.5% |
| NNC(=O)c1ccncc1 [Isoniazid (Tubizid), Isoniazid] | significant inhibition effect | 71% | 44.6% | 39.6% | 50.5% | 64.7% | 44.7% | 110% | 102% | 42.2% | 54.9% | 45.7% | 77.9% | – |
| CC[C@H]1OC(=O)C[C@@H](O)[C@H](C)[C@@H](O[C@@H]2O[C@H](C)[C@@H](O)[C@H](N(C)C)[C@H]2O)[C@@H](CCN2C[C@H](C)C[C@H](C)C2)C[C@@H](C)C(=O)/C=C/C(C)=C/[C@@H]1CO[C@@H]1O[C@H](C)[C@@H](O)[C@@H](OC)[C@H]1OC [Tilmicosin] | significant inhibition effect | 83.8% | 52.1% | 81.5% | 102% | 72.7% | 39.1% | 92.1% | 75% | 56.5% | 54.7% | 53.5% | 67% | – |
| CO[C@H]1/C=C/O[C@@]2(C)Oc3c(C)c(O)c4c(O)c(c(/C=N/N5CCN(C)CC5)c(O)c4c3C2=O)NC(=O)/C(C)=C\C=C\[C@H](C)[C@H](O)[C@@H](C)[C@@H](O)[C@@H](C)[C@H](OC(C)=O)[C@@H]1C [Rifampin (Rifadin, Rimactane), Rifampin] | significant inhibition effect | 83.9% | 61.1% | 69.9% | 111% | 89.1% | 39.7% | 98.5% | 105% | 108% | 61.6% | 45.2% | 58.8% | – |
